Experimental data as given in patent publication US20250000788A1, “BIOCOMPATIBLE DEVICES FOR CELL-BASED THERAPIES AND RELATED METHODS” (SIGILON THERAPEUTICS, INC., priority 2021, published 2025).

Experiments:
[1] = system: immune-competent C57Bl/6 mice; assay: PFO on spheres with mIL-10 secreting ARPE-19 cells and glucocorticoid particles implanted in the peritoneum of mice; type: in vivo; details: mIL-10 secreting ARPE-19 cells, explanted at 28 days, FIGS. 5C-5L
[2] = system: immune-competent C57Bl/6 mice; assay: PFO induction on spheres with GLA-secreting human cells and drug particles implanted in the peritoneum of mice; type: in vivo; details: explanted after 20 days; for PFO induction on explanted spheres (brightfield micrographs): GLA-secreting human cells co-encapsulated with drug particles, peritoneum; for computer aided opacity scoring of PFO induction: FIG. 4B
Excerpt: GLA-secreting human cells were co-encapsulated with particles of the indicated drug and implanted in the peritoneum of immune-competent C57Bl/6 mice.
GLA-secreting human ARPE-19 cells were co-encapsulated with or without TAH particles into spheres that were then implanted in the peritoneum of immune-competent C57Bl/6 mice.

[3] = Release of soluble drug from alginate spheres containing drug particles, incubated in Normosol; type: physicochemical; details: 1 ml Normosol, 37 C; over a 62 (Cyclosporine A) and 32 (TAH) day period respectively; FIG. 1B, 2B
Excerpt: Cyclosporine A particles and Triamcinolone Hexacetonide (TAH) particles were encapsulated in the inner compartment of two compartment alginate hydrogel capsules (“spheres”).

[4] = system: immune-competent C57Bl/6 mice; assay: In vivo hGLA production and viability of GLA-secreting human cells co-encapsulated with TAH crystals, implanted in mice
Procedure: GLA-secreting human cells were co-encapsulated with TAH crystals into spheres that were then implanted in the peritoneum of immune-competent C57Bl/6 mice. The amount of hGLA produced by the spheres (e.g., devices) in vivo at site of implantation and in systemic circulation was measured.

[5] = system: immune-competent Sprague Dawley rats; assay: PFO on spheres with FF particles and ARPE-19 cells implanted in the peritoneum of rats; type: in vivo; details: unmodified ARPE-19 cells or cells secreting one of two parathyroid hormone fusion proteins, 21 days, data not shown
Excerpt: In a third experiment, spheres co-encapsulating FF particles and either unmodified human ARPE-19 cells or ARPE-19 cells genetically modified to secrete one of two different fusion proteins comprising human parathyroid hormone were implanted in the peritoneum of immune-competent Sprague Dawley rats (five rats per group).

[6] = 20 days post-implantation, FIG. 6

Row | Molecule | PFO on explanted spheres [1] | PFO induction on explanted spheres (brightfield micrographs) [2] | computer aided opacity scoring of PFO induction [2] | other results
1 | C[C@@H]1C[C@H]2[C@@H]3CCC4=CC(=O)C=C[C@]4(C)[C@@]3(Cl)[C@@H](O)C[C@]2(C)[C@@]1(OC(=O)c1ccco1)C(=O)CCl [MF, mometasone furoate] | minimal to no PFO |  |  | 
2 | COc1c(C)c2c(c(O)c1C/C=C(\C)CCC(=O)OCCN1CCOCC1)C(=O)OC2 [MMF] |  | extensive PFO induction | no statistically significant decrease in PFO induction | 
3 | CC(C)(C)CC(=O)OCC(=O)[C@@]12OC(C)(C)O[C@@H]1C[C@H]1[C@@H]3CCC4=CC(=O)C=C[C@]4(C)[C@@]3(F)[C@@H](O)C[C@@]12C [TAH, triamcinolone hexacetonide] | minimal to no PFO | completely prevented induction of PFO |  | soluble drug released from the spheres into the Normosol solution [3]: extended release; hGLA in plasma [4, 6]: Significant levels of hGLA; hGLA in the peritoneal lavage [4, 6]: Significant levels of hGLA; viability in vivo of co-encapsulated GLA-secreting human cells ([4]; retrieved spheres, over a course of 20 days, data not shown): maintained their viability
4 | C[C@@H]1CCN(C(=O)CC#N)C[C@@H]1N(C)c1ncnc2[nH]ccc12 [Tofactitinib] |  | extensive PFO induction | no statistically significant decrease in PFO induction | 
5 | fluticasone furoate [FF] | minimal to no PFO |  |  | PFO on explanted spheres [5]: minimal to no PFO
6 | fluticasone propionate [FP] | minimal to no PFO |  |  | 
